{"source": "paper PMC5114558", "about": "“Reader domain specificity and lysine demethylase-4 family function” (Nature Communications, 2016)", "assay_type_in_all_cases": "biochemical, human", "key": {"[1]": {"tested_on": "KDM4B full-length protein", "experiment": "MS-based demethylation assay, full-length KDM4B", "settings": "0.2 μM enzyme, 5–10 μM peptide, pH 7.5, 25 °C, MS read-out, single peptide substrates, Fig. 6a,b", "method": "(§1) In a typical demethylase reaction, the assay mixture containing 50 mM Tris pH 7.5, 50 mM NaCl, 50 μM (NH4)2Fe(SO4)2, 0.5 mM ascorbic acid, 1 mM α-ketoglutarate and 0.2 μM full-length KDM4A–C (Active Motif) was mixed with 5–10 μM of trimethylated histone peptides (detailed sequence information in Supplementary Table 1). Each peptide concentration was quantified by measuring Abs280nm for peptides containing either tryptophan or tyrosine residue. After incubation of assay mixture at 25 °C for 10, 30 and 60 min time point, 10 μl of aliquot was transferred to a clean tube containing 5 μl of 5% formic acid to quench the reaction. Each quenched sample was treated with standard StageTip protocol using C18 extraction disk (Model 2215, Empore, 3 M) to remove excess salts and detergents in the reaction mixture. Each eluate from StageTip containing peptides was dried at a reduced pressure (vacuum centrifuge) and was re-suspended with 10 μl of 5% acetonitrile solution (0.1% formic acid). The 1 μl of the sample was injected at 0.7 μl min^−1 flow rate onto a Dionex Ultimate 3000 Nano LC system equipped with Atlantis dC18 NanoEase reverse-phase column (3 μm, 100 μm × 150 mm, Waters) and coupled to a hybrid quadrupole-orbitrap MS (Q-Exactive, Thermo Scientific). The peptide was eluted at 4–15 min retention time with a linear gradient of 2–35% acetonitrile (0.1% formic acid). All the solvents used for liquid chromatography MS were HPLC grade (Fisher). For each analysis, MS1 scan range of 300–1,100 m/z was used and data-dependent MS/MS was obtained to identify the site of demethylation. Each peptide peak and its area integration was performed on the XCalibur Qual Browser."}, "[2]": {"tested_on": "KDM4B full-length protein", "experiment": "MS-based demethylation assay, 1:1 substrate competition, full-length KDM4B", "settings": "1:1 (5 μM:5 μM) H3K36me3 and H3K23me3K36me3, 25 °C, P<0.01 (Fig. 6c)", "method": "as §1, with “All the solvents used for liquid chromatography MS were HPLC grade (Fisher). For each analysis, MS1 scan range of 300–1,100 m/z was used and data-dependent MS/MS was obtained to identify the site of demethylation. Each peptide peak and its area integration was performed on the XCalibur Qual Browser.” left out"}, "KDM4A full-length": {"tested_on": "KDM4A full-length", "experiment": "MS-based demethylation assay, 1:1 substrate competition, full-length KDM4A", "settings": "1:1 (5 μM:5 μM) H3K36me3 and H3K23me3K36me3, MS; Supplementary Fig. 7d-e", "method": "as §1, with “All the solvents used for liquid chromatography MS were HPLC grade (Fisher). For each analysis, MS1 scan range of 300–1,100 m/z was used and data-dependent MS/MS was obtained to identify the site of demethylation. Each peptide peak and its area integration was performed on the XCalibur Qual Browser.” left out"}, "KDM4C full-length": {"tested_on": "KDM4C full-length", "experiment": "MS-based demethylation assay, 1:1 substrate competition, full-length KDM4C", "settings": "1:1 (5 μM:5 μM) H3K36me3 and H3K23me3K36me3, MS; Supplementary Fig. 7d-e", "method": "as §1, with “All the solvents used for liquid chromatography MS were HPLC grade (Fisher). For each analysis, MS1 scan range of 300–1,100 m/z was used and data-dependent MS/MS was obtained to identify the site of demethylation. Each peptide peak and its area integration was performed on the XCalibur Qual Browser.” left out"}}, "note": "Entries after “also recorded” stand apart in the source; their conditions may differ."}
{"substance": "H3K23me3K36me3: demethylation assay peptide, Tufts University Core Facility", "values": [{"measurement": "demethylation by full-length KDM4B", "setting": "[1]", "value": "faster rates of H3K36me2 and H3K36me1 product formation"}, {"measurement": "demethylation by full-length KDM4B", "setting": "[1]; listed as H3(20–42)K23me3K36me3", "value": "increases H3K36me3 conversion to H3K36me1/2"}, {"measurement": "preferential demethylation by KDM4B in 1:1 mixture", "setting": "[2]", "value": "preferentially demethylates dually modified peptide; also recorded: preferentially demethylate H3K36me3 in the context of dually modified peptide"}, {"measurement": "preferential demethylation by KDM4A in 1:1 mixture", "setting": "KDM4A full-length", "value": "preferentially demethylates dually modified peptide; also recorded: enhanced for KDM4A and KDM4B but not KDM4C"}, {"measurement": "preferential demethylation by KDM4C in 1:1 mixture", "setting": "KDM4C full-length", "value": "not KDM4C"}]}
